Results published in article PMC6941654, “Glucosyltransferase CsUGT78A14 Regulates Flavonols Accumulation and Reactive Oxygen Species Scavenging in Response to Cold Stress in Camellia sinensis” (Frontiers in Plant Science, 2019).

Target: T1, CsUGT78A14-1 (Camellia sinensis, UniProt A0A109P632)
T1 construct: gene UGT78A14; Ala438 allele
Experiment: UDP-Glo glycosyltransferase assay, steady-state kinetics
Format: biochemical
Details: co-substrate UDP-glucose (Glc row), donor fixed at 100 μM; acceptor varied 1-500 μM; optimized pH and temperature
Excerpt: UDP-Glo glycosyltransferase assay, steady-state kinetics on CsUGT78A14-1

T1 sequence (A0A109P632 entry or part of it): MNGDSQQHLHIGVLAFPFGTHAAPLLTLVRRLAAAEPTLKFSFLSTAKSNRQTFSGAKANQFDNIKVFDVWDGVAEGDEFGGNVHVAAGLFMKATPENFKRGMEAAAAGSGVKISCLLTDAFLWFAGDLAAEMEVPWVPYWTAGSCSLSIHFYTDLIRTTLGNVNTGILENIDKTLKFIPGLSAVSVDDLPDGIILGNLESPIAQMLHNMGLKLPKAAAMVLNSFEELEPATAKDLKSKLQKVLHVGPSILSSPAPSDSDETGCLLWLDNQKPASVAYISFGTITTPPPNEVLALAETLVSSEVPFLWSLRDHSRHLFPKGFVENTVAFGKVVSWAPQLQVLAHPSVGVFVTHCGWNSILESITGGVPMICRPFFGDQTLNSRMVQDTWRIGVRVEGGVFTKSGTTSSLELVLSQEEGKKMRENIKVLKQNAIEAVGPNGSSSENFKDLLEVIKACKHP

Km: 27.1 µM
Compound: O=c1c(O)c(-c2ccc(O)cc2)oc2cc(O)cc(O)c12 [kaempferol]
